Laboratory results taken from PMC6017286, “VSP-17, a New PPARγ Agonist, Suppresses the Metastasis of Triple-Negative Breast Cancer via Upregulating the Expression of E-Cadherin” (Molecules : A Journal of Synthetic Chemistry and Natural …, 2018).

Molecular target: T1, PPARγ (Homo sapiens, UniProt P37231)
T1 construct: gene PPARG; GST-fused human PPARγ-LBD
T1 sequence (P37231 231-505 limits assumed): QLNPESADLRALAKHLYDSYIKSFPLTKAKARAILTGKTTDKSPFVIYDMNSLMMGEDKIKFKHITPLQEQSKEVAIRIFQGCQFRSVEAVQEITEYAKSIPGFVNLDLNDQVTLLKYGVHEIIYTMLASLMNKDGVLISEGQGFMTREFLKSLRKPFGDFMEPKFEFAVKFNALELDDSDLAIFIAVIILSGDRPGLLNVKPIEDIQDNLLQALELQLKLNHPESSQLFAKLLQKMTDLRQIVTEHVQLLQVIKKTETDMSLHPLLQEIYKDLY
Assay: LanthaScreen TR-FRET competitive binding assay (displacement of fluorescent PPAR ligand)

## O=C(NCc1ccncc1)c1ccc2c(ccn2Cc2ccc(C(F)(F)F)cc2)c1 [VSP-17]
  Ki: 270 nM
